This note sets out measurements from PubChem BioAssay AID489035 (Sanford-Burnham Center for Chemical Genomics, 2010).

The structures appear in SMILES notation. Active and inactive are the calls of the source. The rule behind the calls is not given here.

What is called IC50 is the concentration needed to halve the response being measured.

This experiment relates to Jurkat NF-kB reporter, TCR-induced, luciferase luminescence. Nature of the experiment: T-cell NF-kB luciferase reporter inhibition – Jurkat cells, luminescence, dose response (AID 489035).
As for `Nc1ncn([C@@H]2O[C@H](CO)[C@@H](O)[C@H]2O)c(=O)n1`, the IC50 was 10.8 µM.
Turning to `COc1cc(-c2noc(C)c2-c2ccc(N(C)C)nc2)cc(OC)c1OC`, the IC50 was > 80 µM (inactive).
In the case of `CC(C)Oc1ccccc1C1CC(=O)Nc2cc3c(cc21)OCCO3` (centres undefined), the IC50 is > 80 µM (inactive).
For the compound `CCCCCC(=O)N[C@@H](c1ccccc1)[C@@H](O)C(=O)O[C@H]1C[C@@]2(O)[C@@H](OC(=O)c3ccccc3)C3[C@](C)(C(=O)[C@H](OC(C)=O)C(=C1C)C2(C)C)[C@@H](O)C[C@H]1OC[C@@]31OC(C)=O` (some centres undefined), the IC50 is 32.3 µM (inactive).
`C=C(C)COc1ccc(-c2[nH]ncc2-c2ccc(OC)c(OC)c2)c(O)c1`: the IC50 is 13.6 µM.
As for `Cc1cc(-c2ccc(C)c(S(=O)(=O)N3CCN(c4ccc([N+](=O)[O-])cc4)CC3)c2)on1`, the IC50 was > 80 µM (inactive).
Then `COc1ccc(OC)c(CCNC(=O)Cn2nc(C)c3c(C)n(-c4ccc(C)cc4)nc3c2=O)c1`, with 7.63 µM.
For `O=C(c1ccccc1-c1ccccc1)N1CCN(c2ccccn2)CC1`, the IC50 was > 80 µM (inactive).
As for `C=CCn1c(SCc2c(C)noc2C)nc2ccccc2c1=O`, the IC50 is 23 µM (inactive).
As to `CS(=O)(=O)c1ccc(Sc2nc3ccccc3s2)c([N+](=O)[O-])c1`, the IC50 was 0.89 µM.
Turning to `Cc1noc(C)c1COc1ccc(CC(=O)NCc2ccccc2)cc1`, the IC50 was > 80 µM (inactive).
Turning to `CCCN(CCC)C1=CC(=[N+]2CCCC2)CC(C)(C)C1`, the IC50 is > 80 µM (inactive).
Turning to `O=C1CC(c2cc(Br)ccc2F)c2cc3c(cc2N1)CCC3` (centres undefined), the IC50 was 15.6 µM.
Take `CCOc1ccccc1N1CC(O)=C(c2nc3ccccc3s2)C1=N`: the IC50 is 26.7 µM (inactive).
For `CCOC(=O)c1[nH]c(C)c(C(=O)Nc2cc(Cl)ccc2C)c1C` the value was > 80 µM (inactive); for `CCOc1ccc2c(c1)sc(N)[n+]2Cc1cc(C)cc2cccnc12`, 7.8 µM; for `CCCOCCOC(=O)c1[nH]c2c(c1C)C(=O)CC(c1cc(OC)ccc1OC)C2` (centres undefined), > 80 µM (inactive).
On to `COc1ccc(/C=N\NC(=O)c2ccccc2F)cc1COc1ccc(F)cc1F`, for which the IC50 was > 80 µM (inactive).
Take `COc1ccc(-c2c(C#N)c(N)nc3c2CCc2ccccc2-3)cc1OC`: the IC50 was 53.6 µM (inactive).
As to `Cc1ccc(Nc2nc(-c3c(C)nc4ccccn34)cs2)cc1`, the IC50 was 24.6 µM (inactive).
For the compound `O=C(N/N=C(\c1ccccc1)c1cccnc1)c1cccc(F)c1`, the IC50 is 5.3 µM.
As for `Cc1c(C(=O)N/N=C/c2ccc(Cl)cc2)[nH]c2ccc(Cl)cc12`, the IC50 is > 80 µM (inactive).
For `COc1ccc(N(C(=O)c2ccccc2C)S(=O)(=O)c2cccs2)cc1` the value was 20 µM (inactive); for `COc1ccc(OC)c(-c2nnc3n2N=C(c2ccc(OC)c(OC)c2)CS3)c1`, 9.88 µM; for `COC(=O)c1[nH]c2ccc(Br)cc2c1NC(=O)CN1CCN(C2CCCCC2)CC1`, 4.56 µM.
Then `COc1cc(/C=C/[N+](=O)[O-])ccc1OCc1cccc(C(=O)O)c1`, with 0.55 µM; and `COC(=O)c1ccccc1NC(=O)Cn1c(-c2nonc2N)nc2ccccc21`, with 43.6 µM (inactive); and `COc1ccc(NS(=O)(=O)c2cc(-c3cnc(C4CC4)o3)ccc2C)cc1`, with 27 µM (inactive).
For the compound `Cc1cc(C)cc(NC(=O)c2ccc([N+](=O)[O-])o2)c1`, the IC50 is 0.95 µM.
In the case of `COc1cc2c(c(OC)c1OC)-c1ccc(O)cc1[C@@H](NC(C)=O)CC2`, the IC50 was > 80 µM (inactive).
As to `Cc1cccc(N(C)S(=O)(=O)c2ccc(-c3cnc(C4CC4)o3)cc2)c1`, the IC50 was 23.8 µM (inactive).
Then `COc1ccc(C[C@H](N)C(=O)N[C@H]2[C@@H](O)[C@H](n3cnc4c(N(C)C)ncnc43)O[C@@H]2CO)cc1`, with 0.96 µM; and `Cc1cc(C)c(CN2CCN(C(=O)Cn3cnc4c(OCc5ccccc5)ncnc43)CC2)c(C)c1`, with > 80 µM (inactive); and `COc1ccc(C(NC(=O)C(C)C)c2ccc3cccnc3c2O)cc1` (centres undefined), with 5.96 µM.
On to `Cc1ccc(S(=O)(=O)/N=C2\C=C(Nc3ccc(O)cc3)C(=O)c3ccccc32)cc1`, for which the IC50 is 0.62 µM.
Regarding `CSc1ccc(COC(=O)c2cc([N+](=O)[O-])ccc2N2CCOCC2)cc1`, the IC50 was > 80 µM (inactive).
`CCC(=O)N1c2ccc(S(=O)(=O)N3CCN(c4ccc([N+](=O)[O-])cc4)CC3)cc2CC1C` (centres undefined): the IC50 was > 80 µM (inactive).
Take `COc1cc(C2C3=C(Nc4ncnn42)c2ccccc2CC3)cc(OC)c1OC` (centres undefined): the IC50 is 6.79 µM.
Then `Cc1[nH]n(-c2ccccc2)c(=O)c1/C=N/Nc1nncc(-c2ccccc2)n1`, with 3.32 µM; and `CC(=O)O[C@@]12CO[C@@H]1C[C@@H](O)[C@@]1(C)C(=O)[C@H](O)C3=C(C)[C@@H](OC(=O)[C@H](O)[C@@H](NC(=O)c4ccccc4)c4ccccc4)C[C@@](O)([C@@H](OC(=O)c4ccccc4)C12)C3(C)C` (some centres undefined), with less than 0.16 µM.
For the compound `COc1cc(/C=C2/SC(=Nc3ccc(O)cc3)NC2=O)ccc1O`, the half-maximal inhibitory concentration (IC50) was 10.6 µM.
Then `Cc1cc(-n2c(C)cc(C(=O)CSc3ncnc4ccccc34)c2C)no1`, with less than 0.16 µM.
Take `CN(C)c1ccc(-c2nn3c(-c4ccccc4Cl)nnc3s2)cc1`: the IC50 was > 80 µM (inactive).
Consider `CCCC(=O)NC(c1ccc(N(C)C)cc1)c1ccc2cccnc2c1O` (centres undefined), for which the IC50 was 6.58 µM.
Then `CCCCCn1c2c(c(=N)c3ccccc31)CCC2`, with > 80 µM (inactive); and `COc1ccccc1-c1nnc2sc(-c3ccc(N(C)C)cc3)nn12`, with > 80 µM (inactive).
For `C=C(C)[C@@]12OC3(c4ccccc4)O[C@@H]1C1[C@@H]4O[C@]4(CO)[C@@H](O)[C@]4(O)C(=O)C(C)=C[C@H]4[C@@]1(O3)[C@H](C)[C@H]2OC(=O)/C=C/C=C/c1ccccc1` (some centres undefined), the IC50 is 27.9 µM (inactive).
Consider `O=C(Nc1ccc(N2CCOCC2)cc1)c1ccc(Cl)c(S(=O)(=O)N2CCCCC2)c1`, for which the IC50 was > 80 µM (inactive).
On to `COc1cc(C(=O)OCCc2cc3ccccc3c(=O)o2)cc(OC)c1OC`, for which the IC50 is 21.6 µM (inactive).
On to `CCOC(=O)CSC1=C(C#N)C(c2ccc(C)s2)CC(=O)N1` (centres undefined), for which the IC50 was > 80 µM (inactive).
Regarding `Cc1ccc(-c2cc(C(F)F)n3ncc(C(=O)N4CCc5ccccc54)c3n2)cc1`, the IC50 is > 80 µM (inactive).
Then `CC1=CC(C)(C)N(S(=O)(=O)c2ccc(C)cc2)c2cc(C)ccc21`, with 6.77 µM; and `CCOC(=O)/C=C/S(=O)(=O)c1ccc(NC(C)=O)cc1`, with 1.12 µM.
Turning to `O=S(=O)(C/C(=C/CO)S(=O)(=O)c1ccccc1)c1ccccc1`, the IC50 is 0.77 µM.
Then `CCOC(=O)c1[nH]c(C)c(C(=O)Nc2cc(OC)ccc2OC)c1C`, with > 80 µM (inactive); and `C/C(=N\NC(=O)c1cc(C)nc2ccccc12)c1ccccn1`, with > 80 µM (inactive); and `NC(=O)CC(NC(=O)c1ccc(Br)cc1)c1ccc(N2CCCCCC2)c([N+](=O)[O-])c1` (centres undefined), with 2.54 µM.
For `Cc1cc2c(cc1C)C(c1ccccc1OC(C)C)CC(=O)N2` (centres undefined) the value was 7.61 µM.
For `COc1ccc2c(c1)C(=O)N1[C@H]3c4cc(Br)ccc4OC[C@@H]3[C@H](c3ccccc3)[C@]1(C)C(=O)N2`, the IC50 was > 80 µM (inactive).
As for `CCOC(=O)c1[nH]c2c(c1C)C(=O)CC(c1ccco1)C2` (centres undefined), the IC50 is > 80 µM (inactive).
With `CCn1c2ccccc2c2cc(NC(=O)c3cc(OC)cc(OC)c3)ccc21`, the IC50 was > 80 µM (inactive).
As for `Cc1ccc(C(=O)Nc2cc3ccccc3oc2=O)cc1`, the IC50 is 0.32 µM.
Regarding `CCCCOc1ccc(Br)cc1/C(C)=N/NC1=NCCN1`, the IC50 was 5.51 µM.
For the compound `COc1ccc(-c2ccc3oc(-c4ccc(OC)cc4)c(C#CCO)c3c2)cc1`, the IC50 was > 80 µM (inactive).
Then `COc1ccc(OC)c2c1C(=O)C(Cl)=C(Cl)C2=O`, with 1.65 µM.
On to `COc1ccc(/C=c2/sc3n(c2=O)C(c2ccccc2OC)C2=C(N=3)c3ccccc3CC2)cc1O` (centres undefined), for which the IC50 is 22.6 µM (inactive).
With `COc1cc(OC)c(/C=C2\C(=O)Nc3ccccc32)c(OC)c1`, the IC50 was 18.4 µM.
`CCOCCCNC(=O)c1ccc2c(c1)N=C(CC)c1cc(Br)ccc1S2`: the IC50 is 5.67 µM.
As to `Cc1ccc2nc(C)c(CN3CCN(c4ccc([N+](=O)[O-])cc4Cl)CC3)n2c1`, the IC50 was 26.6 µM (inactive).
On to `COc1ccc(CC(=O)Nc2nc(-c3ccc(F)c(F)c3)cs2)cc1OC`, for which the IC50 is 22.4 µM (inactive).
Regarding `CCOC(=O)C1CCN(S(=O)(=O)c2c(Cl)ccc3nonc23)CC1`, the IC50 is 1.88 µM.
For `Cc1cc(/C=C2\Sc3ccccc3N2C)cc(C)[n+]1CC1CCCO1` (centres undefined), the IC50 is 19.2 µM.
For the compound `Cc1nn(C)c(C)c1CN(Cc1nc(CCC(C)C)no1)C(C)C`, the IC50 was > 80 µM (inactive).
Consider `CCOc1ccccc1C(=O)Nc1ccc2nc(N3CCN(c4ncccn4)CC3)cc(C)c2c1`, for which the IC50 was 4.28 µM.
Take `Cc1c(C(=O)N/N=C/c2c(O)ccc3ccccc23)nnn1-c1nonc1N`: the IC50 is > 80 µM (inactive).
Take `CCOC(=O)c1c(C)[nH]c(C(=O)N/N=C/c2ccc(Br)cc2)c1C`: the IC50 was 9.36 µM.
With `O=C(Nc1ccc(F)cc1)c1ccc(CN2CCc3ccccc3C2)cc1`, the IC50 is > 80 µM (inactive).
As to `COc1cc(C(=O)N2CCN(c3cc(Cl)ccc3Cl)CC2)cc(OC)c1OC`, the IC50 is 24.5 µM (inactive).
On to `COc1ccc(C2=Nn3c([n+](C)c4ccccc43)SC2)cc1`, for which the IC50 is > 80 µM (inactive).
Then `O=c1cc(-c2ccccc2)[nH]c2cc(Cl)ccc12`, with 18.8 µM.
Then `CCCCN1/C(=C/c2ccc3ccccc3[n+]2CC)Sc2ccccc21`, with > 80 µM (inactive).
Then `CCN(CC)c1ccc(NC(=O)c2cc(OC)cc(OC)c2)c(C)c1`, with > 80 µM (inactive); and `Cc1oc2c(c1C(=O)NCc1cccnc1)C(=O)c1ccccc1C2=O`, with 1.1 µM; and `CCCC[C@@H](C)C[C@@H](C)C(=O)N(C)[C@@H](CC(C)C)C(=O)N[C@H](C(=O)N(C)[C@H](C(=O)N1C[C@@H](O)C[C@H]1C(=O)N1C(=O)C=C[C@@H]1C)C(C)C)C(C)OC(C)=O` (some centres undefined), with 4.87 µM.
